Numbers after ± are expanded uncertainties.
Key:
[1] = 101 kPa, Liquid; for viscosity: Capillary tube (Ostwald / Ubbelohde) method; for mass density: Pycnometric method
[2] = refractive index (Na D-line) (dimensionless); settings: 298.15 K; 101.33 kPa; Liquid; Standard Abbe refractometry
[3] = xn = mol fraction of the nth substance listed; settings: 101 kPa, Liquid, x2 = 0; for viscosity: Capillary tube (Ostwald / Ubbelohde) method; for mass density: Pycnometric method

CC1OC(C)OC(C)O1 (stereo not given) [2,4,6-trimethyl-1,3,5-trioxane]
viscosity ([1]; 298.15 K): 1.107 ± 0.015 mPa·s
mass density ([1]; 298.15 K): 988.4 ± 1.3 kg/m3
viscosity ([1]; 303.15 K): 1.001 ± 0.014 mPa·s
mass density ([1]; 303.15 K): 982.6 ± 1.3 kg/m3
viscosity ([1]; 308.15 K): 0.907 ± 0.013 mPa·s
mass density ([1]; 308.15 K): 976.4 ± 1.4 kg/m3

CCCCOC(C)=O [butyl ethanoate]
viscosity ([1]; 298.15 K): 0.685 ± 0.01 mPa·s
mass density ([1]; 298.15 K): 876.4 ± 1.1 kg/m3
viscosity ([1]; 303.15 K): 0.636 ± 0.01 mPa·s
mass density ([1]; 303.15 K): 871.3 ± 1.1 kg/m3
viscosity ([1]; 308.15 K): 0.579 ± 0.009 mPa·s
mass density ([1]; 308.15 K): 866.2 ± 1.1 kg/m3
refractive index [2]: 1.3918 ± 0.0009

CCCCOC(C)=O [butyl ethanoate] + CC1OC(C)OC(C)O1
viscosity ([3]; 298.15 K): 0.685 ± 0.01 mPa·s
mass density ([3]; 298.15 K): 876.4 ± 1.1 kg/m3
viscosity ([3]; 303.15 K): 0.636 ± 0.01 mPa·s
mass density ([3]; 303.15 K): 871.3 ± 1.1 kg/m3
viscosity ([3]; 308.15 K): 0.579 ± 0.009 mPa·s
mass density ([3]; 308.15 K): 866.2 ± 1.1 kg/m3

CCOC(C)=O [ethyl acetate]
viscosity ([1]; 298.15 K): 0.43 ± 0.008 mPa·s
mass density ([1]; 298.15 K): 893.8 ± 1.2 kg/m3
viscosity ([1]; 303.15 K): 0.401 ± 0.008 mPa·s
mass density ([1]; 303.15 K): 887.6 ± 1.2 kg/m3
viscosity ([1]; 308.15 K): 0.387 ± 0.008 mPa·s
mass density ([1]; 308.15 K): 881.2 ± 1.2 kg/m3
refractive index [2]: 1.37 ± 0.0009

CCOC(C)=O [ethyl acetate] + CC1OC(C)OC(C)O1
viscosity ([3]; 298.15 K): 0.43 ± 0.008 mPa·s
mass density ([3]; 298.15 K): 893.8 ± 1.2 kg/m3
viscosity ([3]; 303.15 K): 0.401 ± 0.008 mPa·s
mass density ([3]; 303.15 K): 887.6 ± 1.2 kg/m3
viscosity ([3]; 308.15 K): 0.387 ± 0.008 mPa·s
mass density ([3]; 308.15 K): 881.2 ± 1.2 kg/m3

COC(C)=O [methyl ethanoate]
viscosity ([1]; 298.15 K): 0.367 ± 0.008 mPa·s
mass density ([1]; 298.15 K): 926.7 ± 1.3 kg/m3
viscosity ([1]; 303.15 K): 0.351 ± 0.007 mPa·s
mass density ([1]; 303.15 K): 919.7 ± 1.2 kg/m3
viscosity ([1]; 308.15 K): 0.338 ± 0.007 mPa·s
mass density ([1]; 308.15 K): 916.2 ± 1 kg/m3
refractive index [2]: 1.3585 ± 0.0009

COC(C)=O [methyl ethanoate] + CC1OC(C)OC(C)O1
viscosity ([3]; 298.15 K): 0.367 ± 0.008 mPa·s
mass density ([3]; 298.15 K): 926.7 ± 1.3 kg/m3
viscosity ([3]; 303.15 K): 0.351 ± 0.007 mPa·s
mass density ([3]; 303.15 K): 919.7 ± 1.2 kg/m3
viscosity ([3]; 308.15 K): 0.338 ± 0.007 mPa·s
mass density ([3]; 308.15 K): 916.2 ± 1 kg/m3

Reference: the NIST ThermoML archive (doi:10.1016/j.jct.2006.03.014)
